In EP0672419A1, “BLOOD PRESSURE REGULATOR” (Asahi Kasei Kogyo Kabushiki Kaisha, priority 1991, dated 1995):

Test system: Adult mongrel dog
Assay: Induced hypotension in halothane-anesthetized dog, mean arterial pressure kept at 50 mmHg for 60 min (Example 5)
Assay type: in vivo
Description: Adult mongrel dog, mean body weight 12.7 ± 3.1 kg, was anesthesized with pentobarbital 25 mg/kg, intratarcheally cannulated and maintained anesthetic condition by 0.87% halothane-oxygen (1 MAC, minimum anesthetic concentration). Respiration was controlled, by using respirator (Harvard Corp., Model 613E ) at Paco₂ 35±5 mmHg.
Catheters were introduced to right femoral vein and artery for monitering arterial blood pressure, arterial blood gas analysis and infusion, and left cardiac catheter was introduced to left femoral […] to monitor left ventricular pressure. The changes in left ventricular pressure were differentiated continuously using a pressure processor (Nihon Koden Co., EQ-601G) to measure a maximum left ventricular systolic ratio (LV dp/dt max). The active ingredient of the present invention was administered to left femoral vein. Pulmonary arterial catheter (7F, Swan-Ganz® catheter) was introduced through right external jugular vein to monitor pulmonary artery pressure (PAP), paulmonary arterial wedge pressure (pulmonary capillary wedge pressure, PCWP) and cardiac output (CO). Pressure was monitored by using disporsable pressure monitoring kit (Gould Corp.), and electrocardiogram, arteriala pressure, left ventricle pressure (LVP) and maximum left ventricular systolic ratio (LV dp/dt max) were monitored by polygraph (Nihon Koden Co.) . Cardiac output (CO) was measured by thermal dilution method using cardiac output monitor (Nihon Koden Co Model MTC6210). Blood gas analysis was made by using automatic blood gas analyser (Radiometer Corp. ABL3). Mean artery pressure (MAP), cardiac index(CI) stroke volume index (SI), systemic vascular resistance (SVR), pulmonary vascular resistance (PVR), left ventricle stroke work index (LVSWI) and coronary perfusion pressure (CPP) were calculated by standard calculation equations, respectively.
To maintain low blood pressure, the active ingredient was intraveneously administered for 60 minutes with maintaining maximum dose at 40 µg/kg and adjusting to maintain mean arteraial pressure at 50 mmHg. Physiological saline was used for maintenance infusion and administered in combination with the active ingredient at 7 ml/kg/hr. At blood sampling two fold volume of hydroxyethylstarch (6-HES) was supplementary administered. Body temperature was maintained at 37 ± 1°C by covering with blanket.
A value at time are than 60 minutes passed after completing the start of the experiment and stabilizing a depth of anesthesia and blood flow, is set as control (S₁). Monitorings were performed at 5 min., 30 min. and 60 min. under reduced blood pressure in induced hypotension, and at 10 min., 30 min. and 60 min. after terminating the reduced blood pressure in induced hypotension (after stopping administration), for totally seven points of time.

[1] = after administration 5min., i.v., MAP kept at 50 mmHg
[2] = after administration 30min., i.v., MAP kept at 50 mmHg
[3] = after administration 60min., i.v., MAP kept at 50 mmHg
[4] = after terminating administration 10min.
[5] = after terminating administration 30min.
[6] = after terminating administration 60min.

desalanyl-deamino-c-CGRP
CI: Cardiac index [1]: 4.65 1/min/m²
CO: Cardiac output [1]: 3.67 min⁻¹
CPP: Coronary perfusion pressure [1]: 45 mmHg
CVP: Central venous pressure [1]: 4 mmHg
DAP: Diastolic artery pressure [1]: 50 mmHg
DPAP: Diastolic pulmonary artery pressure [1]: 7 mmHg
EtCO₂: Expiration terminal CO₂ pressure [1]: 37 mmHg
HR: Heart rate [1]: 143 beat/min
LV dp/dt max: maximum left ventricular systolic ratio [1]: 3000 mmHg/sec
LVEP: Left ventricle end pressure [1]: 0 mmHg
LVP: Left ventricle pressure [1]: 102 mmHg
LVSWI: Left ventricle stroke work index [1]: 26.5 g.m/beat/m²
MAP: Mean artery pressure [1]: 65 mmHg
MPAP: Mean pulmonary artery pressure [1]: 16 mmHg
PCWP: Pulmonary capillary wedge pressure [1]: 5 mmHg
PVR: Pulmonary vascular resistance [1]: 255 dynes · sec/cm⁵
RPP: Rate pressure products [1]: 13200 mmHg.beat/min
RVSWI: Right ventricle stroke work index [1]: 5.30 g.m/beat/m²
SAP: Systolic artery pressure [1]: 93 mmHg
SI: Stroke index [1]: 32.5 ml/HR/m²
SPAP: Systolic pulmonary artery pressure [1]: 29 mmHg
SV: Stroke volumes [1]: 24 mL/beat
SVR: Systemic vascular resistance [1]: 1410 dynes · sec/cm⁵
CI: Cardiac index [2]: 4.24 1/min/m²
CO: Cardiac output [2]: 3.40 min⁻¹
CPP: Coronary perfusion pressure [2]: 29 mmHg
CVP: Central venous pressure [2]: 4 mmHg
DAP: Diastolic artery pressure [2]: 34 mmHg
DPAP: Diastolic pulmonary artery pressure [2]: 5 mmHg
EtCO₂: Expiration terminal CO₂ pressure [2]: 35 mmHg
HR: Heart rate [2]: 132 beat/min
LV dp/dt max: maximum left ventricular systolic ratio [2]: 2600 mmHg/sec
LVEP: Left ventricle end pressure [2]: 0 mmHg
LVP: Left ventricle pressure [2]: 86 mmHg
LVSWI: Left ventricle stroke work index [2]: 19.7 g.m/beat/m²
MAP: Mean artery pressure [2]: 50 mmHg
MPAP: Mean pulmonary artery pressure [2]: 12 mmHg
PCWP: Pulmonary capillary wedge pressure [2]: 5 mmHg
PVR: Pulmonary vascular resistance [2]: 177 dynes · sec/cm⁵
RPP: Rate pressure products [2]: 7650 mmHg.beat/min
RVSWI: Right ventricle stroke work index [2]: 3.50 g.m/beat/m²
SAP: Systolic artery pressure [2]: 58 mmHg
SI: Stroke index [2]: 32.2 ml/HR/m²
SPAP: Systolic pulmonary artery pressure [2]: 24 mmHg
SV: Stroke volumes [2]: 23.8 mL/beat
SVR: Systemic vascular resistance [2]: 1160 dynes · sec/cm⁵
CI: Cardiac index [3]: 4.95 1/min/m²
CO: Cardiac output [3]: 3.75 min⁻¹
CPP: Coronary perfusion pressure [3]: 37 mmHg
CVP: Central venous pressure [3]: 4 mmHg
DAP: Diastolic artery pressure [3]: 43 mmHg
DPAP: Diastolic pulmonary artery pressure [3]: 7 mmHg
EtCO₂: Expiration terminal CO₂ pressure [3]: 34 mmHg
HR: Heart rate [3]: 138 beat/min
LV dp/dt max: maximum left ventricular systolic ratio [3]: 2600 mmHg/sec
LVEP: Left ventricle end pressure [3]: 0 mmHg
LVP: Left ventricle pressure [3]: 95 mmHg
LVSWI: Left ventricle stroke work index [3]: 23.4 g.m/beat/m²
MAP: Mean artery pressure [3]: 50 mmHg
MPAP: Mean pulmonary artery pressure [3]: 15 mmHg
PCWP: Pulmonary capillary wedge pressure [3]: 6 mmHg
PVR: Pulmonary vascular resistance [3]: 196 dynes · sec/cm⁵
RPP: Rate pressure products [3]: 8000 mmHg.beat/min
RVSWI: Right ventricle stroke work index [3]: 5.37 g.m/beat/m²
SAP: Systolic artery pressure [3]: 58 mmHg
SI: Stroke index [3]: 35.9 ml/HR/m²
SPAP: Systolic pulmonary artery pressure [3]: 27 mmHg
SV: Stroke volumes [3]: 26.5 mL/beat
SVR: Systemic vascular resistance [3]: 1090 dynes · sec/cm⁵
CI: Cardiac index [4]: 4.33 1/min/m²
CO: Cardiac output [4]: 3.33 min⁻¹
CPP: Coronary perfusion pressure [4]: 41 mmHg
CVP: Central venous pressure [4]: 4 mmHg
DAP: Diastolic artery pressure [4]: 49 mmHg
DPAP: Diastolic pulmonary artery pressure [4]: 7 mmHg
EtCO₂: Expiration terminal CO₂ pressure [4]: 32 mmHg
HR: Heart rate [4]: 136 beat/min
LV dp/dt max: maximum left ventricular systolic ratio [4]: 3000 mmHg/sec
LVEP: Left ventricle end pressure [4]: 0 mmHg
LVP: Left ventricle pressure [4]: 110 mmHg
LVSWI: Left ventricle stroke work index [4]: 21.7 g.m/beat/m²
MAP: Mean artery pressure [4]: 58 mmHg
MPAP: Mean pulmonary artery pressure [4]: 15 mmHg
PCWP: Pulmonary capillary wedge pressure [4]: 8 mmHg
PVR: Pulmonary vascular resistance [4]: 174 dynes · sec/cm⁵
RPP: Rate pressure products [4]: 9240 mmHg.beat/min
RVSWI: Right ventricle stroke work index [4]: 4.77 g.m/beat/m²
SAP: Systolic artery pressure [4]: 68 mmHg
SI: Stroke index [4]: 31.9 ml/HR/m²
SPAP: Systolic pulmonary artery pressure [4]: 26 mmHg
SV: Stroke volumes [4]: 23.6 mL/beat
SVR: Systemic vascular resistance [4]: 1340 dynes · sec/cm⁵
CI: Cardiac index [5]: 4.07 1/min/m²
CO: Cardiac output [5]: 3.14 min⁻¹
CPP: Coronary perfusion pressure [5]: 46 mmHg
CVP: Central venous pressure [5]: 4 mmHg
DAP: Diastolic artery pressure [5]: 53 mmHg
DPAP: Diastolic pulmonary artery pressure [5]: 8 mmHg
EtCO₂: Expiration terminal CO₂ pressure [5]: 30 mmHg
HR: Heart rate [5]: 138 beat/min
LV dp/dt max: maximum left ventricular systolic ratio [5]: 3000 mmHg/sec
LVEP: Left ventricle end pressure [5]: 0 mmHg
LVP: Left ventricle pressure [5]: 110 mmHg
LVSWI: Left ventricle stroke work index [5]: 23.7 g.m/beat/m²
MAP: Mean artery pressure [5]: 66 mmHg
MPAP: Mean pulmonary artery pressure [5]: 15 mmHg
PCWP: Pulmonary capillary wedge pressure [5]: 7 mmHg
PVR: Pulmonary vascular resistance [5]: 211 dynes · sec/cm⁵
RPP: Rate pressure products [5]: 10900 mmHg.beat/min
RVSWI: Right ventricle stroke work index [5]: 4.42 g.m/beat/m²
SAP: Systolic artery pressure [5]: 79 mmHg
SI: Stroke index [5]: 29.5 ml/HR/m²
SPAP: Systolic pulmonary artery pressure [5]: 25 mmHg
SV: Stroke volumes [5]: 21.8 mL/beat
SVR: Systemic vascular resistance [5]: 1640 dynes · sec/cm⁵
CI: Cardiac index [6]: 4.14 1/min/m²
CO: Cardiac output [6]: 3.07 min⁻¹
CPP: Coronary perfusion pressure [6]: 54 mmHg
CVP: Central venous pressure [6]: 6 mmHg
DAP: Diastolic artery pressure [6]: 61 mmHg
DPAP: Diastolic pulmonary artery pressure [6]: 8 mmHg
EtCO₂: Expiration terminal CO₂ pressure [6]: 30 mmHg
HR: Heart rate [6]: 134 beat/min
LV dp/dt max: maximum left ventricular systolic ratio [6]: 3000 mmHg/sec
LVEP: Left ventricle end pressure [6]: 0 mmHg
LVP: Left ventricle pressure [6]: 111 mmHg
LVSWI: Left ventricle stroke work index [6]: 31.1 g.m/beat/m²
MAP: Mean artery pressure [6]: 95 mmHg
MPAP: Mean pulmonary artery pressure [6]: 16 mmHg
PCWP: Pulmonary capillary wedge pressure [6]: 7 mmHg
PVR: Pulmonary vascular resistance [6]: 234 dynes · sec/cm⁵
RPP: Rate pressure products [6]: 13600 mmHg.beat/min
RVSWI: Right ventricle stroke work index [6]: 4.21 g.m/beat/m²
SAP: Systolic artery pressure [6]: 102 mmHg
SI: Stroke index [6]: 30.9 ml/HR/m²
SPAP: Systolic pulmonary artery pressure [6]: 26 mmHg
SV: Stroke volumes [6]: 22.9 mL/beat
SVR: Systemic vascular resistance [6]: 1950 dynes · sec/cm⁵
